# From PMC4872784 (Oncotarget, 2016)
# Where two headings read alike, the source gives them in different places.
# Columns and labels:
# Format in all cases: cell-based, human
# CCRF-CEM cells = test: alamarBlue cytotoxicity assay, 48h; conditions: CCRF-CEM (T-ALL), RPMI + 10% FBS
# Procedure: (§1) Following subtraction of background fluorescence from all wells, fluorescence of drug-treated cells was normalized to that of vehicle (<0.5% DMSO)-treated cells to determine the effect of each drug concentration on viability. Each cell line was tested in triplicate and in at least three independent experiments. IC50 (concentration that inhibits cell growth by 50%) values were calculated using CompuSyn software (ComboSyn, Paramus, NJ). […] In addition several cell lines were initially cultured and tested in alternative media (Supplementary Table S2). […] Colony counts were normalized to vehicle-treated controls (100%). Three independent experiments were performed.
# (§2) In most experiments, cytotoxicity was assessed using alamarBlue assays (Life Technologies, Grand Island, NY). In experiments using NAC and DFO, which can interfere with alamarBlue assay performance, Trypan Blue dye exclusion was used instead. […]
# (§3) experiments performed in triplicate. […] Age refers to age […]
# (§4) at the time of leukemia diagnosis of the patient from whom the cell line was derived. (–) Indicates information unavailable.
# (§5) *Cell lines with FLT3/ITD mutations.
# (§6) *The MV-4–11 cell line was derived from a patient with a biphenotypic B-myelomonocytic leukemia; K562 was derived […]
# (§7) 1A. p53 status was obtained from http://cancer.sanger.ac.uk/cell_lines/cbrowse/all and http://p53.free.fr/Database/Cancer_ cell_lines/Leukemia_cancer. html. WT: wild type. Mut: mutant. SM: single mutation. DM: double mutation. MM: multiple mutations. Fs: Frameshift mutation. Null: protein expression undetectable.
# K562 cells = test: alamarBlue cytotoxicity assay, 48h; conditions: K562 (CML), RPMI + 10% FBS
# Procedure: as §1, §2, §3, §4, §5, §6, §7
# Kasumi-2 cells = test: alamarBlue cytotoxicity assay, 48h; conditions: Kasumi-2 (B-ALL), RPMI + 10% FBS
# Procedure: as §1, §2, §3, §4, §5, §6, §7
# RS4;11 cells = test: alamarBlue cytotoxicity assay, 48h; conditions: RS4;11 (B-ALL), RPMI + 10% FBS
# Procedure: as §1, §2, §3, §4, §5, §6, §7
# HL-60 cells = test: alamarBlue cytotoxicity assay, 48h; conditions: HL-60 (AML), RPMI + 10% FBS
# Procedure: as §1, §2, §3, §4, §5, §6, §7
# REH cells = test: alamarBlue cytotoxicity assay, 48h
# Procedure: as §1, §2, §3, §4, §5, §6, §7
# SUPB15 cells = test: alamarBlue cytotoxicity assay, 48h
# Procedure: as §1, §2, §3, §4, §5, §6, §7
# NB-4 cells = test: alamarBlue cytotoxicity assay, 48h; conditions: NB-4 (AML), RPMI + 10% FBS
# Procedure: as §1, §2, §3, §4, §5, §6, §7
# ML-2 cells = test: alamarBlue cytotoxicity assay, 48h; conditions: ML-2 (AML), RPMI + 10% FBS
# Procedure: as §1, §2, §3, §4, §5, §6, §7
# OCI-AML3 cells = test: alamarBlue cytotoxicity assay, 48h
# Procedure: as §1, §2, §3, §4, §5, §6, §7
# MOLT-3 cells = test: alamarBlue cytotoxicity assay, 48h; conditions: MOLT-3 (T-ALL), RPMI + 10% FBS
# Procedure: as §1, §2, §3, §4, §5, §6, §7
# Jurkat cells = test: alamarBlue cytotoxicity assay, 48h; conditions: Jurkat (T-ALL), RPMI + 10% FBS
# Procedure: as §1, §2, §3, §4, §5, §6, §7
# RCH-ACV cells = test: alamarBlue cytotoxicity assay, 48h; conditions: RCH-ACV (B-ALL), RPMI + 10% FBS
# Procedure: as §1, §2, §3, §4, §5, §6, §7
# MV-4-11 cells [1] = test: alamarBlue cytotoxicity assay, 48h; conditions: RPMI + 10% FBS
# Procedure: as §1, §2, §3, §4, §5, §6, §7
# THP-1 cells = test: alamarBlue cytotoxicity assay, 48h
# Procedure: as §1, §2, §3, §4, §5, §6, §7
# KG-1a cells = test: alamarBlue cytotoxicity assay, 48h; conditions: KG-1a (AML), RPMI + 10% FBS
# Procedure: as §1, §2, §3, §4, §5, §6, §7
# Kasumi-1 cells = test: alamarBlue cytotoxicity assay, 48h; conditions: Kasumi-1 (AML), RPMI + 10% FBS
# Procedure: as §1, §2, §3, §4, §5, §6, §7
# SEM cells = test: alamarBlue cytotoxicity assay, 48h
# Procedure: as §1, §2, §3, §4, §5, §6, §7
# U937 cells = test: alamarBlue cytotoxicity assay, 48h; conditions: RPMI + 10% FBS
# Procedure: as §1, §2, §3, §4, §5, §6, §7
# MOLT-16 cells = test: alamarBlue cytotoxicity assay, 48h; conditions: MOLT-16 (T-ALL), RPMI + 10% FBS
# Procedure: as §1, §2, §3, §4, §5, §6, §7
# MV-4-11 cells [2] = test: clonogenicity (colony formation in semi-solid medium); conditions: 24h pretreatment
# Procedure: as §1
# (§8) After 7-10d (leukemia cells) or 10-14d (HSPCs), colonies (≥20 cells) were enumerated.
# MOLM14 cells [3] = test: as above; conditions: 24h pretreatment
# Procedure: as §1, §8
# KOPN8 cells = test: alamarBlue cytotoxicity assay, 48h; conditions: RPMI + 10% FBS
# Procedure: as §1, §2, §3, §4, §5, §6
# as §7, with “undetectable. […]” for “undetectable.”
# (§9) measured via alamarBlue assay. […]
# MOLM14 cells [4] = test: alamarBlue cytotoxicity assay, 48h; conditions: for IC50: MOLM14 (AML), 48h, RPMI + 10% FBS
# Procedure: as §1, §2, §3, §4, §5, §6
# as §7, with “undetectable. […]” for “undetectable.”
# as §9
compound,measurement,setting,value
"C[C@H]1[C@H](OC(=O)CCC(=O)O)O[C@@H]2O[C@@]3(C)CC[C@H]4[C@H](C)CC[C@@H]1[C@@]24OO3 [AS, artesunate]",IC50,CCRF-CEM cells; Homo sapiens,7.34 ± 1.24 µM
same,IC50,K562 cells; Homo sapiens,4750 ± 850 nM
same,IC50,Kasumi-2 cells; Homo sapiens,6.65 ± 0.34 µM
same,IC50,RS4;11 cells; Homo sapiens,5420 ± 1890 nM
same,IC50,HL-60 cells; Homo sapiens,3000 ± 600 nM
same,IC50,"REH cells; Homo sapiens, read-out: IC50 in RPMI+10% FBS, REH, Table S2",10.3 µM
same,IC50,"REH cells; Homo sapiens, REH (B-ALL), 48h, RPMI + 10% FBS, read-out: IC50",10.3 ± 3 µM
same,IC50,"REH cells; Homo sapiens, REH, original medium RPMI + 20% FBS, read-out: IC50 in original medium",15.4 µM
same,IC50,"SUPB15 cells; Homo sapiens, SUP-B15, SUPB15 (B-ALL), 48h, RPMI + 10% FBS, read-out: IC50",7.82 ± 1.22 µM
same,IC50,"SUPB15 cells; Homo sapiens, SUP-B15, SUPB15, original medium RPMI + 20% FBS, read-out: IC50 in original medium",14.3 µM
same,IC50,NB-4 cells; Homo sapiens,947 ± 141 nM
same,IC50,ML-2 cells; Homo sapiens,1460 ± 210 nM
same,IC50,"OCI-AML3 cells; Homo sapiens, OCI-AML-3, OCI-AML3 (AML), 48h, RPMI + 10% FBS, read-out: IC50",1810 ± 200 nM
same,IC50,"OCI-AML3 cells; Homo sapiens, OCI-AML-3, OCI-AML3, original medium RPMI + 20% FBS, read-out: IC50 in original medium",3560 nM
same,IC50,MOLT-3 cells; Homo sapiens,4100 ± 620 nM
same,IC50,Jurkat cells; Homo sapiens,4330 ± 1180 nM
same,IC50,RCH-ACV cells; Homo sapiens,3200 ± 540 nM
same,IC50,"MV-4-11 cells [1]; Homo sapiens, MV4-11, MV-4-11 (AML/B-ALL)",796 ± 96 nM
same,IC50,"THP-1 cells; Homo sapiens, THP-1 (AML), 48h, RPMI + 10% FBS, read-out: IC50",2200 ± 480 nM
same,IC50,"THP-1 cells; Homo sapiens, THP-1, original medium RPMI + 10% FBS + 50 μM β-mercaptoethanol, read-out: IC50 in original medium",11100 nM
same,IC50,KG-1a cells; Homo sapiens,6.26 ± 0.3 µM
same,IC50,Kasumi-1 cells; Homo sapiens,1720 ± 230 nM
same,IC50,"SEM cells; Homo sapiens, SEM (B-ALL), 48h, RPMI + 10% FBS, read-out: IC50",4080 ± 1180 nM
same,IC50,"SEM cells; Homo sapiens, SEM, original medium DMEM + 10% FBS, read-out: IC50 in original medium",18300 nM
same,IC50,"U937 cells; Homo sapiens, U-937, U937 (AML)",1060 ± 170 nM
same,IC50,MOLT-16 cells; Homo sapiens,1630 ± 70 nM
same,clonogenicity,MV-4-11 cells [2]; AS 10 μM,substantially reduced
same,clonogenicity,MOLM14 cells [3]; AS 10 μM,substantially reduced
same,IC50,"KOPN8 cells; Homo sapiens, KOPN-8, KOPN8 (B-ALL)",459 ± 49 nM
same,inhibition at 5 µM,"MOLM14 cells [4]; Homo sapiens, MOLM-14, 48 h, MOLM14, 5 μM AS, alamarBlue, read-out: growth inhibition by 48h",90 to 99%
same,IC90,"MOLM14 cells [4]; Homo sapiens, MOLM-14, MOLM14",5000 nM
same,IC50,"MOLM14 cells [4]; Homo sapiens, MOLM-14",825 nM
"C[C@@H]1CCC2[C@@H](C)[C@@H](CC(COP(=O)(Oc3ccccc3)Oc3ccccc3)C[C@H]3O[C@@H]4O[C@@]5(C)CCC6[C@H](C)CCC([C@H]3C)[C@]64OO5)O[C@@H]3O[C@@]4(C)CCC1[C@@]23OO4 (stereo partly drawn) [ART-838, artemisinin-derived trioxane diphenylphosphate dimer 838]",IC50,CCRF-CEM cells,0.483 ± 0.195 µM
same,IC50,K562 cells,94 ± 12 nM
same,IC50,Kasumi-2 cells,0.026 ± 0.004 µM
same,IC50,RS4;11 cells,62 ± 23 nM
same,IC50,HL-60 cells,107 ± 45 nM
same,IC50,"REH cells; REH (B-ALL), 48h, RPMI + 10% FBS, read-out: IC50",0.095 ± 0.04 µM
same,-Fold Difference in IC50 between media,"REH cells; REH, RPMI + 20% FBS vs RPMI+10% FBS",1.3
same,IC50,"REH cells; REH, original medium RPMI + 20% FBS, read-out: IC50 in original medium",0.123 µM
same,IC50,"REH cells; read-out: IC50 in RPMI+10% FBS, REH, Table S2",0.095 µM
same,IC50,"SUPB15 cells; SUPB15 (B-ALL), 48h, RPMI + 10% FBS, read-out: IC50",0.026 ± 0.003 µM
same,-Fold Difference in IC50 between media,"SUPB15 cells; SUPB15, RPMI + 20% FBS vs RPMI+10% FBS",3.0
same,IC50,"SUPB15 cells; SUPB15, original medium RPMI + 20% FBS, read-out: IC50 in original medium",0.077 µM
same,IC50,NB-4 cells,26 ± 7 nM
same,IC50,ML-2 cells,21 ± 11 nM
same,IC50,"OCI-AML3 cells; OCI-AML3 (AML), 48h, RPMI + 10% FBS, read-out: IC50",168 ± 41 nM
same,-Fold Difference in IC50 between media,"OCI-AML3 cells; OCI-AML3, RPMI + 20% FBS vs RPMI+10% FBS",1.7
same,IC50,"OCI-AML3 cells; OCI-AML3, original medium RPMI + 20% FBS, read-out: IC50 in original medium",287 nM
same,IC50,MOLT-3 cells,97 ± 58 nM
same,IC50,Jurkat cells,255 ± 155 nM
same,IC50,RCH-ACV cells,36 ± 12 nM
same,IC50,MV-4-11 cells [1]; MV-4-11 (AML/B-ALL),25 ± 5 nM
same,IC50,"THP-1 cells; THP-1 (AML), 48h, RPMI + 10% FBS, read-out: IC50",38 ± 9 nM
same,-Fold Difference in IC50 between media,"THP-1 cells; THP-1, RPMI + 10% FBS + 50 μM β-mercaptoethanol vs RPMI+10% FBS",2.5
same,IC50,"THP-1 cells; THP-1, original medium RPMI + 10% FBS + 50 μM β-mercaptoethanol, read-out: IC50 in original medium",95 nM
same,IC50,KG-1a cells,0.547 ± 0.147 µM
same,IC50,Kasumi-1 cells,67 ± 23 nM
same,IC50,"SEM cells; SEM (B-ALL), 48h, RPMI + 10% FBS, read-out: IC50",29 ± 6 nM
same,-Fold Difference in IC50 between media,"SEM cells; SEM, DMEM + 10% FBS vs RPMI+10% FBS",9.2
same,IC50,"SEM cells; SEM, original medium DMEM + 10% FBS, read-out: IC50 in original medium",268 nM
same,IC50,U937 cells; U937 (AML),10 ± 1 nM
same,IC50,MOLT-16 cells,10 ± 2 nM
same,clonogenicity,MV-4-11 cells [2]; ART-838 0.1 μM,completely abolished
same,clonogenicity,MOLM14 cells [3]; ART-838 0.1 μM,completely abolished
same,IC50,KOPN8 cells; KOPN8 (B-ALL),12 ± 2 nM
same,IC90,MOLM14 cells [4]; MOLM14,100 nM
same,IC50,MOLM14 cells [4],25 nM
same,growth inhibition by 48h,"MOLM14 cells [4]; MOLM14, 0.1 μM ART-838, alamarBlue",90-99%
